Patent US11161829B1, “Dihydrofuran chalcone compound and preparation method thereof” (SOUTH CHINA BOTANICAL GARDEN, CHINESE ACADEMY OF SCIENCES, priority 2018, dated 2021)

Assays:
[1] = DPPH radical scavenging assay; type: biochemical; settings: 0.2 mM DPPH in ethanol, 30 minutes in dark at room temperature, absorbance at 517 nm; read-out: IC50 value against DPPH radicals
Method: DPPH is a stable free radical. When a free radical scavenger is present, light absorption of DPPH will be reduced when the single electron is scavenged, which allows to evaluate free radical scavenging ability of the substance and accordingly determine antioxidant ability thereof. The DPPH radical scavenging ability of the dihydrofuran chalcone was measured through the DPPH radical scavenging assay, so as to evaluate the antioxidant ability of the compound. The assay comprised the following steps: 1,1-Diphenyl-2-picrylhydrazyl (DPPH) was dissolved in absolute ethanol to obtain a solution with a concentration of 0.2 mM. The dihydrofuran chalcone was dissolved in absolute ethanol. 80 μL of the ethanol solution of dihydrofuran chalcone and 160 μL of the 0.2 mM DPPH ethanol solution were mixed and the mixture was placed in dark at room temperature for 30 minutes. Then, light absorbance at 517 nm was measured using a microplate reader (SpectraMax 190, Molecular Devices, USA), and Vc was employed as a positive control.

[2] = Solubility in methanol (structure identification); type: physicochemical

IC50 [1] [µM] | solubility in methanol [2] | SMILES
100 |  | O=C1O[C@H]([C@@H](O)CO)C(O)=C1O [Vc, vitamin C]
 | easily soluble | CC(C)(O)C1Cc2c(O)ccc(C(=O)/C=C/c3ccc(O)cc3O)c2O1 (centres unmarked) [compound 1, dihydrofuran chalcone]
